Results as given in ChEMBL document CHEMBL1201862, “PubChem BioAssay data set” (2004).
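Results reflect a 48-hour exposure of cells in 96-well plates to compound at five concentrations. Here, GI50 denotes the concentration required for 50% inhibition of growth.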 Active and inactive are the calls of the source. No stated cut-off is given here; in the data, active = GI50 up to about 1.1 µM and inactive = higher.

How the values were obtained:
Assay in all cases: DTP human tumour cell line panel, 48 h
SNB-19 = test system: SNB-19
UACC-257 = test system: UACC-257
TK-10 = test system: TK-10
DU-145 = test system: DU-145
MCF7 = test system: MCF7
HT-29 = test system: HT-29
HOP-92 = test system: HOP-92
M14 = test system: M14
OVCAR-3 = test system: OVCAR-3
SR = test system: SR
SK-OV-3 = test system: SK-OV-3
MOLT-4 = test system: MOLT-4
ACHN = test system: ACHN
CAKI-1 = test system: CAKI-1
SK-MEL-2 = test system: SK-MEL-2
OVCAR-4 = test system: OVCAR-4
KM12 = test system: KM12
BT-549 = test system: BT-549
M19-MEL = test system: M19-MEL
DMS-273 = test system: DMS-273

| Structure (SMILES) | GI50 (SNB-19) | GI50 (UACC-257) | GI50 (TK-10) | GI50 (DU-145) | GI50 (MCF7) | GI50 (HT-29) | GI50 (HOP-92) | GI50 (M14) | GI50 (OVCAR-3) | GI50 (SR) | GI50 (SK-OV-3) | GI50 (MOLT-4) | GI50 (ACHN) | GI50 (CAKI-1) | GI50 (SK-MEL-2) | GI50 (OVCAR-4) | GI50 (KM12) | GI50 (BT-549) | GI50 (M19-MEL) | GI50 (DMS-273) |
| --- | --- | --- | --- | --- | --- | --- | --- | --- | --- | --- | --- | --- | --- | --- | --- | --- | --- | --- | --- | --- |
| CN(C)c1ccc(/C=c2\c3ccccc3n3c2cc(-c2ccccc2)[n+]3C)cc1 | 0.0771 µM (active) | 0.243 µM (active) | 0.624 µM (active) | 0.222 µM (active) | 0.124 µM (active) | 0.0891 µM (active) | 0.284 µM (active) | 0.157 µM (active) | 0.0752 µM (active) | 0.16 µM (active) | 0.303 µM (active) | 0.0914 µM (active) | 0.368 µM (active) | 0.716 µM (active) | 0.175 µM (active) | 0.809 µM (active) | 0.185 µM (active) | 0.0304 µM (active) |  |  |
| CN(C)c1ccc(/C=C/C(=O)c2ccc(O)cc2)cc1 | 25.1 µM (inactive) | 7.66 µM (inactive) | 35.3 µM (inactive) | 8.67 µM (inactive) | 4.11 µM (inactive) | 5.21 µM (inactive) | 38.2 µM (inactive) | 4.14 µM (inactive) | 2.9 µM (inactive) | 0.33 µM (active) | 4.78 µM (inactive) | 2.64 µM (inactive) | 18.8 µM (inactive) | 12.9 µM (inactive) | 14 µM (inactive) | 24.2 µM (inactive) | 3.25 µM (inactive) | 6.08 µM (inactive) |  |  |
| Cc1ccc(-c2nnc(-c3ccc4ccccc4c3)o2)cc1 | > 96.6 µM (inactive) | 22.2 µM (inactive) | 7.94 µM (inactive) | 18.2 µM (inactive) | > 100 µM (inactive) | > 87.9 µM (inactive) | > 51.6 µM (inactive) | 12.3 µM (inactive) | 99.1 µM (inactive) | 7.36 µM (inactive) | 56.2 µM (inactive) | 3.13 µM (inactive) | > 100 µM (inactive) | 5.19 µM (inactive) | 2.92 µM (inactive) | 40.3 µM (inactive) | > 100 µM (inactive) | 13.7 µM (inactive) |  |  |
| O=C1C=CC(=NNc2ccccc2)C=CC1=O | 18.9 µM (inactive) | 18.8 µM (inactive) | 22.3 µM (inactive) | 18 µM (inactive) | 19.3 µM (inactive) | 13.6 µM (inactive) | 17.5 µM (inactive) | 12.9 µM (inactive) | 10.3 µM (inactive) | 1.72 µM (inactive) | 26 µM (inactive) | 3.1 µM (inactive) | 8.05 µM (inactive) | 13.9 µM (inactive) | 15.1 µM (inactive) | 7.46 µM (inactive) | 12.4 µM (inactive) | 19.4 µM (inactive) |  |  |
| COc1c2c(c(OC)c3c1c(=O)c1ccccc1n3C)OCO2 | 26.5 µM (inactive) | > 100 µM (inactive) | > 100 µM (inactive) | 36.5 µM (inactive) | 4.2 µM (inactive) | 17.5 µM (inactive) | > 47.8 µM (inactive) | 9.51 µM (inactive) | 5.51 µM (inactive) | 3.69 µM (inactive) | 25.5 µM (inactive) | 7.85 µM (inactive) | 49.2 µM (inactive) | 37.4 µM (inactive) | > 19.9 µM (inactive) | 24.6 µM (inactive) | 3.25 µM (inactive) | 15 µM (inactive) |  |  |
| CN(N=O)c1ccc(/C=C/c2ccnc3ccccc23)cc1 | 46.5 µM (inactive) | 72.4 µM (inactive) | 29.4 µM (inactive) | 61.5 µM (inactive) | 53.8 µM (inactive) | 43.3 µM (inactive) | > 100 µM (inactive) | 93.1 µM (inactive) | 95.1 µM (inactive) | 31.8 µM (inactive) | > 100 µM (inactive) | 34 µM (inactive) | 47 µM (inactive) | 42.3 µM (inactive) | > 100 µM (inactive) | > 100 µM (inactive) | 93.5 µM (inactive) | > 100 µM (inactive) |  |  |
| C=CC1(CC/C(=C\[N+](=O)[O-])c2ccc(OC)c(OC)c2)OCC(C)(C)CO1 | 16.9 µM (inactive) | 10.2 µM (inactive) | 17.5 µM (inactive) | 16.7 µM (inactive) | 13.9 µM (inactive) | 19.9 µM (inactive) | 18.2 µM (inactive) | 17.8 µM (inactive) | 20.6 µM (inactive) | 3.61 µM (inactive) | 22.4 µM (inactive) | 1.46 µM (inactive) | 17.8 µM (inactive) | 23.2 µM (inactive) | 19.1 µM (inactive) | 11.6 µM (inactive) | 15.5 µM (inactive) | 13.8 µM (inactive) |  |  |
| Cc1ccc(C2=C(c3ccccc3)C(=O)C(c3ccccc3)=C2c2ccc(C)cc2)cc1 | 54.3 µM (inactive) | 39.4 µM (inactive) | 45.6 µM (inactive) |  |  | 33.5 µM (inactive) |  | > 100 µM (inactive) |  | 58.5 µM (inactive) | > 100 µM (inactive) | 14.5 µM (inactive) | 32.3 µM (inactive) |  | 6.79 µM (inactive) |  | 36.5 µM (inactive) |  | 41.1 µM (inactive) |  |
| CC(Oc1ccc(OCC2CCCCC2)cc1)C(=O)NCCO (stereo not given) | > 100 µM (inactive) | 49.7 µM (inactive) | > 100 µM (inactive) |  |  | 99.3 µM (inactive) |  | > 100 µM (inactive) | 64.9 µM (inactive) |  | > 100 µM (inactive) | > 100 µM (inactive) | > 100 µM (inactive) |  | > 100 µM (inactive) | > 100 µM (inactive) | > 100 µM (inactive) |  | > 100 µM (inactive) | > 100 µM (inactive) |
| COc1ccc([C@@H]2CC(=O)N2)cc1 | > 100 µM (inactive) | > 100 µM (inactive) | > 100 µM (inactive) |  |  | > 100 µM (inactive) | > 100 µM (inactive) | > 100 µM (inactive) |  | > 100 µM (inactive) | > 100 µM (inactive) | > 100 µM (inactive) | > 100 µM (inactive) | > 100 µM (inactive) | > 100 µM (inactive) | > 100 µM (inactive) | > 100 µM (inactive) |  |  | > 100 µM (inactive) |
| CCOC(=O)C(/C(=N/NC(=O)OC)C(=O)Nc1ccc(C(C)=O)cc1)c1cnc2ccccc2n1 (stereo not given) | > 100 µM (inactive) | > 100 µM (inactive) | > 100 µM (inactive) |  |  | > 100 µM (inactive) | > 100 µM (inactive) | > 100 µM (inactive) | > 100 µM (inactive) | > 100 µM (inactive) | > 100 µM (inactive) |  | > 100 µM (inactive) | > 100 µM (inactive) |  | > 100 µM (inactive) | > 100 µM (inactive) |  | > 100 µM (inactive) |  |
| c1ccc(/C(=N/Nc2ccccn2)c2cccnn2)cc1 | 10.3 µM (inactive) | 3.94 µM (inactive) | 98.6 µM (inactive) | 2.62 µM (inactive) | 3.43 µM (inactive) | 1.16 µM (inactive) | 5.48 µM (inactive) | 1.45 µM (inactive) | 1.92 µM (inactive) | 0.522 µM (active) | 2.58 µM (inactive) | 0.632 µM (active) | 0.998 µM (active) | 1.75 µM (inactive) | 12.7 µM (inactive) | > 84.5 µM (inactive) | 2.72 µM (inactive) | 13.9 µM (inactive) |  |  |
| CCN(CC)CCNC(=O)c1cccc2nc3ccccc3nc12 | 21.2 µM (inactive) | 7.26 µM (inactive) | 27.2 µM (inactive) |  |  | 4.55 µM (inactive) | 38.4 µM (inactive) | 18.5 µM (inactive) | 8.34 µM (inactive) |  | > 49 µM (inactive) | 4.91 µM (inactive) | 5.06 µM (inactive) | > 39.3 µM (inactive) | 13.3 µM (inactive) | 12.8 µM (inactive) | 10.3 µM (inactive) |  |  | 7.26 µM (inactive) |
| CC1=NN(C(=O)c2ccc(Cl)cc2)C(=O)/C1=C/c1ccc(Cl)cc1 | > 100 µM (inactive) | > 100 µM (inactive) | > 100 µM (inactive) |  |  | > 100 µM (inactive) | > 100 µM (inactive) | > 100 µM (inactive) | > 100 µM (inactive) |  | > 100 µM (inactive) | > 100 µM (inactive) | > 100 µM (inactive) | > 100 µM (inactive) | > 100 µM (inactive) | > 100 µM (inactive) | > 100 µM (inactive) |  | > 100 µM (inactive) |  |
| CC(=O)O[C@H]1C(=O)[C@@]2(C)[C@H]([C@H](OC(=O)c3ccccc3)[C@]3(O)C[C@H](OC(=O)[C@H](O)[C@@H](NC(=O)c4ccccc4)c4ccc5ccccc5c4)C(C)=C1C3(C)C)[C@]1(OC(C)=O)CO[C@@H]1C[C@@H]2O | 0.279 µM (active) | 0.0826 µM (active) | 0.506 µM (active) | 0.1 µM (active) | 0.00966 µM (active) | 0.0454 µM (active) | 2.25 µM (inactive) | 0.0466 µM (active) | 0.0362 µM (active) | 0.0239 µM (active) | 0.0248 µM (active) | 0.0264 µM (active) | 1.51 µM (inactive) | 1.59 µM (inactive) | 0.0362 µM (active) | 0.841 µM (active) | 0.0512 µM (active) | 0.0807 µM (active) |  |  |
| OCCCCn1cnc2c(O)ncnc21 | > 100 µM (inactive) | > 100 µM (inactive) | > 100 µM (inactive) |  |  | > 100 µM (inactive) | > 100 µM (inactive) | > 100 µM (inactive) | > 100 µM (inactive) | > 100 µM (inactive) |  | > 100 µM (inactive) | > 100 µM (inactive) | > 100 µM (inactive) |  | > 100 µM (inactive) | > 100 µM (inactive) |  | > 100 µM (inactive) |  |
| C=C(C)[C@@H]1CC=C(CO)CC1 [PERILLYL ALCOHOL] | 348 µM (inactive) | 533 µM (inactive) | 324 µM (inactive) | > 10 µM (inactive) | > 10 µM (inactive) | 136 µM (inactive) | 117 µM (inactive) | 710 µM (inactive) | 150 µM (inactive) | 152 µM (inactive) | 748 µM (inactive) | 72.3 µM (inactive) | 121 µM (inactive) | > 10 µM (inactive) | 122 µM (inactive) | 515 µM (inactive) | 316 µM (inactive) | > 10 µM (inactive) | 182 µM (inactive) |  |
